Source: a melting point compilation (Tetko et al.; mined from patent text by program, amines drawn as free bases though some values may be those of a salt)

SMILES	melting point [°C]
CCN1c2ncccc2C(=NOC)Nc2c(C)cc(C)nc21	164 to 166
Cc1cc2c(cc1O)C(C)(C)CCC2(C)C	122 to 123
Cc1ccccc1CNc1c2c(nc3ccccc13)CCCC2O (centres undefined)	167 to 169
CCOC(=O)c1conc1-c1ccc(F)c(Br)c1	96 to 97
CC(C)c1cc(Oc2c(Cl)cc(C(F)(F)F)cc2Cl)n[nH]1	98 to 101
COc1cc(C)nc(NC(=O)NS(=O)(=O)c2cccc3c2OC(C)(C)O3)n1	180 to 183
CCOc1ccc(C(C)=O)cc1S(N)(=O)=O	148 to 151
CCOC(=O)Nc1c(C(=O)c2cccc(Cl)c2)[nH]c2cc(Cl)ccc12	188 to 189
CC(C)n1nc(-c2c(-c3ccccc3)nn3ccc(OCC(=O)N(C)C)cc23)ccc1=O	189 to 190
OC(c1ccccc1)(c1ccc(Cl)cc1)c1ncc[nH]1 (centres undefined)	163 to 165
Cc1cccc(-c2cc(F)c3c(c2)CC(CN)O3)c1 (centres undefined)	> 250
CCC(=O)OCC1OC(n2cnc3c(OC)nc(N)nc32)C(O)C1O (centres undefined)	124
CSCc1cnc2c([N+](=O)[O-])cccc2c1Cl	96 to 98
CCN(CC)Cc1nc(Cn2cnc3c2c(=O)n(C)c(=O)n3C)no1	68 to 70
COc1ccc(CNC(=O)C23CC4CC(CC(C4)C2)C3)cc1	91 to 94
CC(C)CCC(=O)N[C@H]1CC[C@H](CCN2CCC(c3cccc4c3CCO4)CC2)CC1	188
N#Cc1cccc(-c2c(C(N)=O)c3n(c2Cl)CCN(C(=O)NC2CCOCC2)C3)c1	236 to 238
COC(=O)CS(=O)(=O)C(C)c1ccc(-c2ccccc2)cc1 (centres undefined)	79 to 80
CCSC1=C(C#N)C(c2ccccc2)(c2ccccc2)C(=O)N1CCCNC(=O)OC(C)(C)C	88
CC(C)c1nc(C(C)C)c(CCCC(=O)O)c(-c2ccc(F)cc2)c1CO	160
O=C(c1ccc(Cl)cc1)c1cnc2ccc(Cl)cc2c1O	> 260
CCCc1nc(C=O)c(C(=O)OCC)n1Cc1cc2c(cc1Cl)OCO2	105
COc1cc(OC)cc(S(=O)(=O)c2ccc([N+](=O)[O-])c(C)c2)c1	125 to 127
O=C(O)CCc1[nH]c2cc(Cl)cc(Cl)c2c1Br	228
O=C(Oc1ccc2c(=O)cc(N3CCOCC3)oc2c1)c1ccccc1	204 to 206
Cc1ccc2[nH]ncc2c1N	197 to 200

SMILES	melting point [°C]
O=c1c2c(Cl)cc(Cl)cc2n(Cc2ccccc2)c(=O)n1Cc1cccc2ccccc12	220 to 226
O=C(Cc1ccccc1)Nc1cc(-c2ccc(Cl)cc2)[nH]n1	222 to 224
Cc1ccc(CN2CCC(O)CC2)cc1	72 to 74
CC(=O)OCCCNC(=O)CCC(NC(=O)C=Cc1ccco1)C(=O)NCCCOC(C)=O (centres undefined)	132 to 134
COCCc1nc2c(N)nc3cc(-c4ccccc4)ccc3c2n1CCCN1CCCC1=O	187 to 191
COC(=O)c1cc2sccc2s1	96 to 97
Cc1c(CCBr)c2cccc3c2n1CCS3	94
CCOC(=O)c1cn(-c2ccc([N+](=O)[O-])cn2)nc1SCc1ccccc1	164 to 166
O=Cc1cnn(-c2c(Cl)cc(C(F)(F)F)cc2Cl)n1	94 to 95
c1ccc(-c2nn3c(c2-c2ccc4nsnc4c2)CCC3)nc1	184 to 186
CCCC1(C)OC(=O)C(c2ccc(F)c(F)c2)=C1c1ccc(S(C)(=O)=O)cc1 (centres undefined)	89 to 90
CC(C)(C)c1ccc(CN2CCN(c3ccccc3)CC2)o1	48
CC(C)(C)OC(=O)N[C@H](CC(=O)OCc1ccccc1)C(=O)N[C@H](CO)C(C)(C)C	186 to 187
CC(C)CNC(=O)C1=C(C(=O)Nc2cc(OC3CCC(C)C3)c(Cl)cc2F)CCCC1 (centres undefined)	144 to 147
Cc1cc(C)cc(C(=O)/C=C/c2nc[nH]c2C)c1	165 to 166
O=S(=O)(CCO)c1cc2c(Nc3cccc(Br)c3)ncnc2cn1	208 to 209
CC(C)(C)Cc1ccc(C(=O)c2ccccc2C(=O)O)cc1	154
O=CN1CC2CC2(c2ccc(O)cc2)C1 (centres undefined)	166 to 167
O=C(O)c1ccccc1N1CCN(CC(O)COc2ccc(O)cc2)CC1 (centres undefined)	235 to 237
COc1c(Br)c(CO)c(OC)c2ccccc12	115 to 117
CCC(C(=O)N(C)C)n1ccc(-c2ccccc2Cl)n1 (centres undefined)	38.5 to 40
CC(OS(C)(=O)=O)C(C)n1ncn(-c2ccc(N3CCN(c4ccc(OCC5COC(Cn6cncn6)(c6ccc(F)cc6F)O5)cc4)CC3)cc2)c1=O (centres undefined)	172
CC1CN(c2ccc(Cl)cc2)N=C1NCC(F)(F)F (centres undefined)	84 to 86
O=C1c2c(cc(O)c(Cl)c2Cl)CC1C1CCCC1 (centres undefined)	222 to 225
O=C(C=Cc1ccc(F)cc1)N1CCOCC1	136 to 137
CCON=C(CC)C1=C(O)CC(c2cccc3sccc23)CC1=O (centres undefined)	76

SMILES	melting point [°C]
Cc1ccc(OCCCCCOc2ccc3ccc(=O)oc3c2)cn1	101 to 102
O=C(O)C(=O)c1ccc(OCCCc2ccc(F)cc2)cc1	77 to 78
Cc1nc(CCCCCCC(=O)O)c(C(=O)O)s1	147 to 149
Cc1ccc(-c2csc(C(=O)O)n2)cc1	112 to 114
C1=C(c2ccccc2)CSS1	122 to 124
COc1ccc(Sc2oc3ccc(Cl)cc3c2C)nn1	131 to 134
O=C(CC12CC3CC(CC(C3)C1)C2)Nc1ccc2cn[nH]c2c1	245
Nc1ccccc1Cc1nc[nH]n1	134 to 136
CN1CC(C(=O)COC(=O)c2ccncc2)CC2c3cccc4[nH]cc(c34)CC21 (centres undefined)	158 to 161
CC1(C)[C@@H](C=C2CC2)[C@@H]1C(=O)O (relative stereo)	85
CCc1c(OC)cc(C2CN(C)CC/C2=C\C(=O)OC)cc1OC (centres undefined)	110 to 112
N#CCc1ccc2c(c1)Cc1cccnc1O2	166 to 167
CC(O)=C(C#N)C(=O)Nc1ccc(C(C)(C)C)cc1	134 to 135
CCCCOc1nc2cccc(C(=O)OC)c2n1Cc1ccc(-c2ccccc2C#N)cc1	74 to 75
COc1cc2ncc(C#N)c(Nc3ccc(F)c(Cl)c3)c2cc1NC(=O)C=CCN(C)CCO	210 to 214
Cc1c(C(=O)Nc2ccc(OCC(C)C)c(C#N)c2)cnn1C	160 to 162
CN(C)Cc1ccccc1Sc1ccc(F)cc1[N+](=O)[O-]	57 to 59
O=C(Nc1cccc(S(=O)(=O)NCc2ccccn2)c1)c1cnn2c(C(F)F)cc(-c3ccc(C(F)(F)F)cc3)nc12	208
CC(C)(C)C(=O)Nc1c(F)cc(F)cc1Oc1ccc(C(C)(C)C(=O)O)cc1	168 to 170
Nc1ccc(-c2nc(N3CCOCC3)c3sc(C(=O)NCC4CCN(c5ncc(C(=O)NO)cn5)CC4)cc3n2)cc1	232 to 238
CC(=O)Nc1cccc(C#Cc2c(F)c(F)nc(F)c2F)c1	215 to 216
CC(=O)Nc1cccc(C=O)c1	68 to 70
COc1ccccc1N1CCN(CCCCOc2ccc(-c3cn4cccnc4n3)cc2)CC1	151 to 153
CSC(=NCC(C)C)Nc1cc(Cl)cc(Cl)c1	150
CC(=O)NN=C1CC2(CCN(C)CC2)OC1C (centres undefined)	164 to 167
CC(C)(C)NCC(O)COc1ccccc1CCCc1cccc2[nH]ccc12 (centres undefined)	96

SMILES	melting point [°C]
Cc1c(-c2ccccn2)[nH]c2ncnc(Nc3cccc(Cl)c3)c12	171 to 172
COc1cccc(C2OCC(C)(C)C2(O)C(C)(C)C)c1 (centres undefined)	83 to 83.5
CCOC(=O)c1ccc(NCCOc2ccc(Cl)cc2Cl)cc1	111 to 113
ON=C1OC2C=CC1CC2 (centres undefined)	153 to 154
CC(C)(C)OC(=O)NCCCc1ccc2c(n1)NCCC2	95.2 to 96.3
Cc1cccc2[nH]c(=O)n(CCCN3CC=C(c4ccc(Cl)cc4)CC3)c(=O)c12	175 to 178
COc1ccc(-c2ccc(-c3ccc(C)cc3)s2)s1	108 to 111
CCc1cc(NC(=O)c2nnn(Cc3ccccc3)n2)c(O)c(C(C)=O)c1	159 to 161
CC(=NNC(=O)c1ccccc1)c1sc(C)nc1C	138
CNC(=O)N1N=C(c2ccc([N+](=O)[O-])cc2)c2cc(Cl)c(Cl)cc2CC1C (centres undefined)	221 to 223
COC(=O)CCc1cccc(Cl)c1C(=O)CCCNC(C)=O	51 to 52
O=C(Nc1ccc(Oc2ccccc2)cc1)N1CCN(c2cc(C(F)(F)F)nc3ccccc23)CC1	203 to 204
COc1ccc(-c2ccc(C=O)c3occc23)cc1	104 to 105
CCOC(=O)c1cn(C2CC2)c2cc(-c3cc(C4OCC(C)(C)CO4)cc(OC)c3OC)c(F)cc2c1=O	178 to 180
CC1COC(Nc2ccccc2)(c2ccnc(C(=O)c3ccc(Cl)cc3)c2)O1 (centres undefined)	125 to 126
NC(=O)N1C(=O)Cc2cc(C(=O)c3ccccc3)ccc21	210 to 211
CC(Oc1cccc(Oc2c(Cl)cc(C(F)(F)F)cc2Cl)c1)(C(=O)O)[N+](=O)[O-] (centres undefined)	146
Clc1ccc(CCC(Cn2ccnc2)Sc2ccccc2Cl)s1 (centres undefined)	121 to 122
NS(=O)(=O)c1ccc(N2CCN(CCC3C=Cc4ccccc43)CC2)cc1 (centres undefined)	181
Fc1cccc2c(CCc3ccsc3)ccnc12	96 to 97
COc1ccc(Nc2ncc3ccc(=O)n(C4CCCC4)c3n2)cn1	181 to 182
CN(Cc1ccccc1)C(N)=NC#N	102 to 105
O=c1[nH]c2ccccc2n1CCCN1CCC(C(O)(c2ccc(F)cc2)c2ccc(F)cc2)CC1	141 to 143
Cc1cc(Oc2ncc(C(F)(F)F)cc2Cl)nn1C(=O)Nc1ccc(Cl)c(Cl)c1	150 to 152
CC(C)(CCN1CCc2ccc(S(=O)(=O)Nc3cccc(Cl)c3)cc2C1)C(=O)O	120
COc1ccc(OC)c(CCC(C)(O)CC2CCCCN2)c1 (centres undefined)	85 to 90
